From patent US12673022B2, “Drug delivery system using solution” (Kyoto University, priority 2018, dated 2026)

Tested on: EGFP reporter cells (C2C12 cells)
Assay: EGFP-SSA assay: uptake of Cas9 protein/gRNA complex into cells (EGFP positive rate)
Type: cell-based, mouse
Conditions: Example 1; compound 250.0 mM; reaction solution 1 (550 mM sodium chloride, 1 mM HEPES, Cas9 protein/gRNA), 30 minutes
Description: EGFP-SSA assay: an abbreviation of EGFP-single strand annealing assay. The reporter cassette shown in FIG. 1 is inserted in EGFP reporter cells. In the middle of the EGFP sequence of the cassette, MmDMD-Ex51 sequence is inserted. Since the presence of MmDMD-Ex51 sequence, by which EGFP ORF is divided, EGFP protein is not usually translated. However, when target sequence of MmDMD-Ex51 is cleaved by Cas9 protein/gRNA complex, the upstream region (EG part) and the downstream region (FP part) of EGFP ORF are annealed via a homology area into a single strand, with the result that a full-length EGFP ORF emerges to produce EGFP protein. Based on this principle, the ratio of the number of cells producing EGFP is checked by the EGFP-SSA assay. In this manner, the amount of Cas9 protein/gRNA complex delivered to cells can be predicted.
(§1) Cas9 protein (0.4 μg), tracrRNA (34.18 ng), MmDmd Ex51 crRNA (29.48 ng), a 1 M HEPES buffer (0.05 μL) and a 5 M aqueous sodium chloride solution (5.5 μL) were mixed and diluted with UltraPure DNase/RNase-Free Distilled Water up to a liquid volume of 37.5 μL so as to obtain final concentrations: 8 ng/μL Cas9 protein, 0.68 ng/μL tracrRNA, 0.59 ng/μL MmDmd Ex51 crRNA, 1 mM HEPES, 550 mM sodium chloride, and 250 mM compound. To this solution, a 1000 mM compound solution (12.5 μL) was added and the solution mixture was incubated at normal temperature for 15 minutes.
as §1, with “buffer (2.5” for “buffer (0.05”, “solution (4.85” for “solution (5.5”, “crRNA, 50” for “crRNA, 1”, “HEPES, 485” for “HEPES, 550”, “minutes. Note that, in the cases where the final concentrations of the compound are 0.69 mM, 25 mM, 100 mM, 125 mM, 160 mM, 200 mM and 500 mM, the compound stock solution was diluted with UltraPure DNase/RNase-Free Distilled Water up to concentrations of 2.76 mM, 100 mM, 400 mM, 500 mM, 640 mM, 800 mM and 2000 mM, respectively, and then, added. […]” for “minutes.”
Cas9 protein (2.0 μg), tracrRNA (170.9 ng), MmDmd Ex51 crRNA (147.4 ng), a 1 M HEPES buffer (12.5 μL), a 5 M aqueous sodium chloride solution (18.35 μL) and a 1 M aqueous GABA solution (62.5 μL) were mixed, diluted with UltraPure DNase/RNase-Free Distilled Water up to a liquid volume of 250 μL so as to obtain final concentrations: 8 ng/μL Cas9 protein, 0.68 ng/μL tracrRNA, 0.59 ng/μL MmDmd Ex51 crRNA, 50 mM HEPES, 250 mM GABA and 367 mM sodium chloride, and incubated at normal temperature for 15 minutes. Note that the addition amount of the 5 M aqueous sodium chloride solution was changed to 24.25 μL in the case of 485 mM sodium chloride and the addition amount was changed to 27.5 μL in the case of 550 mM sodium chloride, respectively.

NC(=O)N[C@@H](CC(=O)O)C(=O)O [N-Carbamyl-L-aspartic acid]
Compound activity: EGFP positive rate (%): 8.53%
